Several values for one entry are separate records, joined by “and”; a condition that tells them apart may be missing. Equal values may be shown once. Toxic doses and inconclusive results are not listed. No stated cut-off is given here; in the data, active means T/C of 150% or more; inactive means T/C below 125%.
Test system: L1210 leukemia ip in BDF1 mice, survival T/C
Test: NCI In Vivo Anticancer Drug Screen. Data for tumor model L1210 Leukemia (intraperitoneal) in B6D2F1 (BDF1) mice
Conditions: endpoint: mean survival time, higher = longer survival
Summary of the method: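 In this screen, tumor-bearing mice given compound are compared to those given vehicle, and their survival values are reported as a treated-to-control quotient.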

[1] = dose: 100.0 mg/kg/injection, schedule: Q01DX001 (ip), vehicle: carboxymethylcellulose (CMC)
[2] = dose: 200.0 mg/kg/injection, schedule: Q01DX001 (ip), vehicle: carboxymethylcellulose (CMC)
[3] = dose: 400.0 mg/kg/injection, schedule: Q01DX001 (ip), vehicle: carboxymethylcellulose (CMC)
[4] = dose: 100.0 mg/kg/injection, schedule: Q01DX001 (ip), vehicle: saline
[5] = dose: 200.0 mg/kg/injection, schedule: Q01DX001 (ip), vehicle: saline
[6] = dose: 400.0 mg/kg/injection, schedule: Q01DX001 (ip), vehicle: saline
[7] = dose: 100.0 mg/kg/injection, schedule: Q04DX003 (ip), vehicle: Klucel (hydroxypropylcellulose) (HPC)
[8] = dose: 200.0 mg/kg/injection, schedule: Q04DX003 (ip), vehicle: Klucel (hydroxypropylcellulose) (HPC)
[9] = dose: 400.0 mg/kg/injection, schedule: Q04DX003 (ip), vehicle: Klucel (hydroxypropylcellulose) (HPC)
[10] = dose: 100.0 mg/kg/injection, schedule: Q01DX009 (ip), vehicle: saline with Tween-80
[11] = dose: 25.0 mg/kg/injection, schedule: Q04DX002 (ip), vehicle: saline with Tween-80
[12] = dose: 100.0 mg/kg/injection, schedule: Q04DX002 (ip), vehicle: Klucel (hydroxypropylcellulose) (HPC)
[13] = dose: 200.0 mg/kg/injection, schedule: Q04DX002 (ip), vehicle: Klucel (hydroxypropylcellulose) (HPC)
[14] = dose: 400.0 mg/kg/injection, schedule: Q04DX002 (ip), vehicle: Klucel (hydroxypropylcellulose) (HPC)
[15] = dose: 100.0 mg/kg/injection, schedule: Q01DX009 (ip), vehicle: Klucel (hydroxypropylcellulose) (HPC)
[16] = dose: 200.0 mg/kg/injection, schedule: Q01DX009 (ip), vehicle: Klucel (hydroxypropylcellulose) (HPC)

Measured: T/C

N#Cc1cnn(CCO)c1N
inactive: [1] 103 % of control | dose: 100.0 mg/kg/injection, schedule: Q01DX009 (ip), vehicle: water 107 % of control | dose: 100.0 mg/kg/injection, schedule: Q04DX003 (ip), vehicle: water 115 % of control | [2] 97 % of control | dose: 200.0 mg/kg/injection, schedule: Q01DX009 (ip), vehicle: water 101 % of control | dose: 200.0 mg/kg/injection, schedule: Q04DX003 (ip), vehicle: water 110 % of control | [3] 100 % of control | dose: 400.0 mg/kg/injection, schedule: Q01DX009 (ip), vehicle: water 114 % of control | dose: 400.0 mg/kg/injection, schedule: Q04DX003 (ip), vehicle: water 104 % of control

C=C1C(=O)OC2CC(C)C3CC(OCCCl)OC(OCCCl)C3(C)CC12 (stereo not given)
inactive: dose: 1.25 mg/kg/injection, schedule: Q01DX005 (ip), vehicle: other 104 % of control | dose: 2.5 mg/kg/injection, schedule: Q01DX005 (ip), vehicle: other 106 % of control | dose: 5.0 mg/kg/injection, schedule: Q01DX005 (ip), vehicle: other 101 % of control | dose: 10.0 mg/kg/injection, schedule: Q01DX005 (ip), vehicle: other 101 % of control | dose: 20.0 mg/kg/injection, schedule: Q01DX005 (ip), vehicle: other 113 % of control

CCCC(SCC(=O)O)SCC(=O)O
inactive: dose: 100.0 mg/kg/injection, schedule: Q01DX009 (ip), vehicle: saline 93 % of control | dose: 100.0 mg/kg/injection, schedule: Q04DX002 (ip), vehicle: saline 97 % of control | dose: 200.0 mg/kg/injection, schedule: Q01DX009 (ip), vehicle: saline 100 % of control | dose: 200.0 mg/kg/injection, schedule: Q04DX002 (ip), vehicle: saline 100 % of control | dose: 400.0 mg/kg/injection, schedule: Q04DX002 (ip), vehicle: saline 95 % of control

COc1c2occc2c(OC)c2c(=O)cc(/C=C/c3ccncc3)oc12
inactive: [4] 97 % of control | [5] 94 % of control | [6] 101 % of control

COc1ccc(C(=O)/C=C/c2ccc3c(c2)OCO3)cc1
inactive: [7] 100 % of control | [8] 94 % of control | [9] 93 % of control

CC(=O)OCC1OC(n2cc(C)c(=O)[nH]c2=O)C(OC(C)=O)C(OC(C)=O)C1OC(C)=O (stereo not given)
inactive: [4] 94 % of control | [5] 105 % of control | [6] 97 % of control

O=C(Nc1ccc(Cl)cc1)c1cc(Cl)cc(Cl)c1Br
inactive: [1] 95 % of control | [2] 93 % of control | [3] 91 % of control

CCC(=O)c1cc([N+](=O)[O-])ccc1NC(C)=O
inactive: [10] 97 % of control | dose: 200.0 mg/kg/injection, schedule: Q01DX009 (ip), vehicle: saline with Tween-80 94 % of control | dose: 400.0 mg/kg/injection, schedule: Q01DX009 (ip), vehicle: saline with Tween-80 94 % of control

CCC(N)Cc1ccc2c(c1)OCO2 (stereo not given)
inactive: dose: 25.0 mg/kg/injection, schedule: Q04DX003 (ip), vehicle: saline 98 % of control | dose: 50.0 mg/kg/injection, schedule: Q04DX003 (ip), vehicle: saline 101 % of control | dose: 100.0 mg/kg/injection, schedule: Q04DX003 (ip), vehicle: saline 100 % of control

Cc1ccc(S(=O)(=O)N2C=Cc3ccccc3CC2)cc1
inactive: [1] 107 % of control | [2] 100 % of control | [3] 112 % of control

CC(C)(C)OC(=O)NCCCCC(NC(=O)OCc1ccccc1)C(=O)O (stereo not given)
inactive: [11] 90 % of control | dose: 50.0 mg/kg/injection, schedule: Q04DX002 (ip), vehicle: saline with Tween-80 97 % of control | [10] 89 % of control | dose: 100.0 mg/kg/injection, schedule: Q04DX002 (ip), vehicle: saline with Tween-80 101 % of control

COc1ccc(NC(=S)NC2CCCCC2)cc1
inactive: dose: 100.0 mg/kg/injection, schedule: Q04DX003 (ip), vehicle: other 94 % of control | dose: 200.0 mg/kg/injection, schedule: Q04DX003 (ip), vehicle: other 88 % of control | dose: 400.0 mg/kg/injection, schedule: Q04DX003 (ip), vehicle: other 90 % of control

C(=N\c1oc(-c2ccccc2)nc1Sc1ccccc1)/c1ccccc1
inactive: [12] 92 % of control | [13] 100 % of control | [14] 96 % of control

O=C(O)CCCCCCCCCCCO
inactive: [7] 100 % of control | [8] 97 % of control | [9] 91 % of control

C#CCOCCBr
inactive: dose: 100.0 mg/kg/injection, schedule: Q04DX003 (ip), vehicle: saline with Tween-80 97 % of control | dose: 200.0 mg/kg/injection, schedule: Q04DX003 (ip), vehicle: saline with Tween-80 95 % of control

O=C(Nc1cccc(NC(=O)c2ccccc2)c1)c1ccccc1
inactive: [7] 92 % of control | [8] 95 % of control | [9] 90 % of control

NC(CSSCC(N)=NC1CCCCC1)=NC1CCCCC1
inactive: dose: 3.0 mg/kg/injection, schedule: Q01DX009 (ip), vehicle: saline 96 % of control and 103 % of control | dose: 6.0 mg/kg/injection, schedule: Q01DX009 (ip), vehicle: saline 106 % of control and 90 % of control | dose: 6.25 mg/kg/injection, schedule: Q04DX002 (ip), vehicle: saline with Tween-80 124 % of control | dose: 12.0 mg/kg/injection, schedule: Q01DX009 (ip), vehicle: saline 103 % of control and 104 % of control | dose: 12.5 mg/kg/injection, schedule: Q01DX001 (ip), vehicle: saline with Tween-80 94 % of control | dose: 12.5 mg/kg/injection, schedule: Q01DX009 (ip), vehicle: carboxymethylcellulose (CMC) 100 % of control and 105 % of control | dose: 12.5 mg/kg/injection, schedule: Q04DX002 (ip), vehicle: saline with Tween-80 109 % of control | dose: 25.0 mg/kg/injection, schedule: Q01DX001 (ip), vehicle: saline with Tween-80 100 % of control | dose: 25.0 mg/kg/injection, schedule: Q01DX009 (ip), vehicle: carboxymethylcellulose (CMC) 103 % of control | dose: 25.0 mg/kg/injection, schedule: Q04DX002 (ip), vehicle: carboxymethylcellulose (CMC) 96 % of control and 91 % of control | [11] 102 % of control | dose: 50.0 mg/kg/injection, schedule: Q04DX002 (ip), vehicle: carboxymethylcellulose (CMC) 95 % of control | dose: 100.0 mg/kg/injection, schedule: Q04DX003 (ip), vehicle: carboxymethylcellulose (CMC) 104 % of control | dose: 200.0 mg/kg/injection, schedule: Q04DX003 (ip), vehicle: carboxymethylcellulose (CMC) 96 % of control

CC1([N+](=O)[O-])COP(=O)(Nc2ccc(Cl)cc2)OC1 (stereo not given)
inactive: [1] 95 % of control | [2] 93 % of control | [3] 98 % of control

Nc1nc(N)nc(C(c2ccccc2)c2ccccc2)n1
inactive: [12] 103 % of control | [13] 94 % of control | [14] 87 % of control

C[n+]1ccc(/C=C/c2ccc(O)c3ccccc23)cc1
inactive: dose: 75.0 mg/kg/injection, schedule: Q01DX001 (ip), vehicle: saline 100 % of control | dose: 150.0 mg/kg/injection, schedule: Q01DX001 (ip), vehicle: saline 101 % of control

O=C1OC(/C=C/c2ccccc2)=NC/1=C\C=C\c1ccccc1
inactive: [12] 107 % of control | [13] 104 % of control | [14] 104 % of control

O=C1C(C2(O)C(=O)Nc3ccccc32)CCCC1C1(O)C(=O)Nc2ccccc21 (stereo not given)
inactive: dose: 50.0 mg/kg/injection, schedule: Q01DX009 (ip), vehicle: Klucel (hydroxypropylcellulose) (HPC) 97 % of control | [15] 104 % of control | [16] 101 % of control

Cc1ccc([N+](=O)[O-])c(OC(=O)Nc2ccc(Cl)c(Cl)c2)c1
inactive: [15] 101 % of control | [7] 96 % of control and 106 % of control | [16] 101 % of control | [8] 88 % of control | dose: 400.0 mg/kg/injection, schedule: Q01DX009 (ip), vehicle: Klucel (hydroxypropylcellulose) (HPC) 114 % of control | [9] 87 % of control and 91 % of control

COC(=O)C1(C)COP(=O)(N2CC2C)OC1 (stereo not given)
inactive: [4] 101 % of control | [5] 101 % of control | [6] 97 % of control

— PubChem BioAssay AID248 (DTP/NCI, 2004)
